According to ChEMBL document CHEMBL2150866, “Irreversible 4-Aminopiperidine Transglutaminase 2 Inhibitors for Huntington's Disease” (ACS Med Chem Lett, 2012):

Legend:
[1] = Half life in mouse plasma at 1 uM; assay type: ADME, cell-free
[2] = Chemical stability of the compound in phosphate buffer at pH 7.4 assessed as GSH adduct formation after 120 hrs; assay type: physicochemical; conditions: pH 7.4, 120 h
[3] = target: T1, Protein-glutamine gamma-glutamyltransferase (Homo sapiens, UniProt P21980); assay: Inhibition of human TGM2
T1 sequence (P21980 whole entry): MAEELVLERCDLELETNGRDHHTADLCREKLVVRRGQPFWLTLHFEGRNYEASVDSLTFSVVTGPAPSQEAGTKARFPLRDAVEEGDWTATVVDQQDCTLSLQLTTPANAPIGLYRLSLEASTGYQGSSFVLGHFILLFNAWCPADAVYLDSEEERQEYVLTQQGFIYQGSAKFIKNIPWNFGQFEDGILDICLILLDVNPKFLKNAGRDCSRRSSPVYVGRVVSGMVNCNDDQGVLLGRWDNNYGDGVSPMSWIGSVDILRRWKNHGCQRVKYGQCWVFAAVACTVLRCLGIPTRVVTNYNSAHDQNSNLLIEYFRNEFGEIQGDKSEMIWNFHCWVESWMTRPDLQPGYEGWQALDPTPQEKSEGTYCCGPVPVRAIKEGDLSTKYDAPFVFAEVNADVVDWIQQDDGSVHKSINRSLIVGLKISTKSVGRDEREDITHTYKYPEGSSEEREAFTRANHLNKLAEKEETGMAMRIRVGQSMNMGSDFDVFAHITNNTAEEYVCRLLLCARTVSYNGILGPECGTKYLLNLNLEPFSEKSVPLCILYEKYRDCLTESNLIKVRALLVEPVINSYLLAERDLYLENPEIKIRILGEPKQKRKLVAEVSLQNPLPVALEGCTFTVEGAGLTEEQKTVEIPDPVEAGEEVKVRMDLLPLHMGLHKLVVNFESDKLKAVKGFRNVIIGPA

[4] = target: T2, Protein-glutamine gamma-glutamyltransferase E (Homo sapiens, UniProt Q08188); assay: Inhibition of human TGM3
T2 sequence (Q08188 whole entry): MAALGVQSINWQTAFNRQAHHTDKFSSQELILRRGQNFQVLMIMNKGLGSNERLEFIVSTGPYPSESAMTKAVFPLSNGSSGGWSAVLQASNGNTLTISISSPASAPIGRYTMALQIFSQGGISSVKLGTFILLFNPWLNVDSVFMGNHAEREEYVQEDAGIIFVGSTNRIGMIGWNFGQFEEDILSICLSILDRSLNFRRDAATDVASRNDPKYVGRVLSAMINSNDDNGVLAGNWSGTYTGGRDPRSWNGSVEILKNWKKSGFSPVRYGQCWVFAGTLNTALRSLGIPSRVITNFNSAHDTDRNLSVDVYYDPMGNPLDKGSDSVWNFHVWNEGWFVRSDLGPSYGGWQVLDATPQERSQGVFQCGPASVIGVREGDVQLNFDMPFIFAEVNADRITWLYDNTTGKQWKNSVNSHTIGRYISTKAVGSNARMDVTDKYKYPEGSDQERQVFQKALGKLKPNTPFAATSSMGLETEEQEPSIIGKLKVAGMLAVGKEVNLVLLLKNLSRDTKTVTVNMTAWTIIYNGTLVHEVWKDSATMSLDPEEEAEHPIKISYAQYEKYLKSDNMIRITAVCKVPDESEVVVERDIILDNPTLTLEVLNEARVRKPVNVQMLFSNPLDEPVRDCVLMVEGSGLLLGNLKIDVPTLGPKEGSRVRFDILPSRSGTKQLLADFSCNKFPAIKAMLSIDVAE

[5] = target: T3, Coagulation factor XIII A chain (Homo sapiens, UniProt P00488); assay: Inhibition of human factor-13A
T3 sequence (P00488 whole entry): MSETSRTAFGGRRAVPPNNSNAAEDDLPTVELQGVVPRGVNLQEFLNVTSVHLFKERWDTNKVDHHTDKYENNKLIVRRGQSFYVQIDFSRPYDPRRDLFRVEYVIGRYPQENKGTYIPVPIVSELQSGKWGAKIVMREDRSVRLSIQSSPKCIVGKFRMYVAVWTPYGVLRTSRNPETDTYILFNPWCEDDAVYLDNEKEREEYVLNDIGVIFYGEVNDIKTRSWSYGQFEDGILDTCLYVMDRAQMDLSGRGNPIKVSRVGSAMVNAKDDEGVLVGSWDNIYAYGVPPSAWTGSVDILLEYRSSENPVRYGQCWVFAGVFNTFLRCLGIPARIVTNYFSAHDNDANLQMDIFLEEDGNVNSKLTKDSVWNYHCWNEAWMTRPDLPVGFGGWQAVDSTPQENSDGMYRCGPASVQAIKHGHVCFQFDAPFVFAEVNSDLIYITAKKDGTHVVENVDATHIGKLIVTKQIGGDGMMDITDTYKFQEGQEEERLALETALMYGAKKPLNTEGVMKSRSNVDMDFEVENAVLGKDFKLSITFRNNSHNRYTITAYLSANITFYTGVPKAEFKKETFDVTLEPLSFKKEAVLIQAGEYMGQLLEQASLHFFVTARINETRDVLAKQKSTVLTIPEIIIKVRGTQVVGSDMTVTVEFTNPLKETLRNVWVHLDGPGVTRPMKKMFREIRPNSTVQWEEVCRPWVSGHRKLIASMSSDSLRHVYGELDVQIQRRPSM

[6] = target: T4, Protein-glutamine gamma-glutamyltransferase K (Homo sapiens, UniProt P22735); assay: Inhibition of human TGM1
T4 sequence (P22735 whole entry): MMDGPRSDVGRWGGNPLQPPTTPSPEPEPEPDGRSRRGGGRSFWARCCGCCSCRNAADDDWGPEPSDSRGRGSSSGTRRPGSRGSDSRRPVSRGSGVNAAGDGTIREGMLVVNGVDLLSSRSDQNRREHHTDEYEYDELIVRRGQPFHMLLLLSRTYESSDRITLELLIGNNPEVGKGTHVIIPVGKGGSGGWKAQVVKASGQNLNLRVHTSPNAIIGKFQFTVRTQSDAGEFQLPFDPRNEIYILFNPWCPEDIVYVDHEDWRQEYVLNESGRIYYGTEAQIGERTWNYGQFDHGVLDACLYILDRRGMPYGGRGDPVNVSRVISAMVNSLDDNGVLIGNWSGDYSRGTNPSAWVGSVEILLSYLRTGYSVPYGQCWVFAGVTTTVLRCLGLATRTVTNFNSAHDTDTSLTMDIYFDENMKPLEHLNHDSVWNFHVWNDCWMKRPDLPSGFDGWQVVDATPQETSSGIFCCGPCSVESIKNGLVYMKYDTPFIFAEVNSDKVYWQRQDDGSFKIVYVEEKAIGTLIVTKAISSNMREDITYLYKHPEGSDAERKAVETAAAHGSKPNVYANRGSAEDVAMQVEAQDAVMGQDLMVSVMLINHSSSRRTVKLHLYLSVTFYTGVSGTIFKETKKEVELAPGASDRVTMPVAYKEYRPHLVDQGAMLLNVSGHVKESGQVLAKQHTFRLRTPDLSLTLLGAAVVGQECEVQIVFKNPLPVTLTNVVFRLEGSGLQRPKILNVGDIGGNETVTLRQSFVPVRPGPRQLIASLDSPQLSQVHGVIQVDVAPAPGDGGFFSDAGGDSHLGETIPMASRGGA

[7] = Half life in human plasma at 1 uM; assay type: ADME, cell-free
[8] = target: T5, Protein-glutamine gamma-glutamyltransferase 6 (Homo sapiens, UniProt O95932); assay: Inhibition of human TGM6
T5 sequence (O95932 whole entry): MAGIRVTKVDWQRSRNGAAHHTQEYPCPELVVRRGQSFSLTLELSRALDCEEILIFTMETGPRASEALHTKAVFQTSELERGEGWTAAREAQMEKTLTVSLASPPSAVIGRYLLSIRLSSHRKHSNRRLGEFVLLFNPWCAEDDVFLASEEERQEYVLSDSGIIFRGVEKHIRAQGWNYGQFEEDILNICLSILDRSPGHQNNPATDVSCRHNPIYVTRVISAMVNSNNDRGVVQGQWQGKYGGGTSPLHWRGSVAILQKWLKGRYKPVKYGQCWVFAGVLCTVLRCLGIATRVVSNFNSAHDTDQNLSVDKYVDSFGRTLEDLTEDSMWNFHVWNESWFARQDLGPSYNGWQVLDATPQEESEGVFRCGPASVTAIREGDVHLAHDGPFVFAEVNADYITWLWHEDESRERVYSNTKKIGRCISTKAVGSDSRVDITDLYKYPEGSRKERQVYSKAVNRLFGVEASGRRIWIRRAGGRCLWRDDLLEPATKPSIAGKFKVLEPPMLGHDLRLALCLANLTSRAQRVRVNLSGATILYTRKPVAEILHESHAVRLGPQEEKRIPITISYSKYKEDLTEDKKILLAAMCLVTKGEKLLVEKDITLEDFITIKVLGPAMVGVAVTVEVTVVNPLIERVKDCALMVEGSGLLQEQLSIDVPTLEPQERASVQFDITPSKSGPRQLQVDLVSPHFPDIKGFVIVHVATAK

[9] = target: T6, Protein-glutamine gamma-glutamyltransferase 2 (Mus musculus, UniProt P21981); assay: Inhibition of mouse TGM2
T6 sequence (P21981 whole entry): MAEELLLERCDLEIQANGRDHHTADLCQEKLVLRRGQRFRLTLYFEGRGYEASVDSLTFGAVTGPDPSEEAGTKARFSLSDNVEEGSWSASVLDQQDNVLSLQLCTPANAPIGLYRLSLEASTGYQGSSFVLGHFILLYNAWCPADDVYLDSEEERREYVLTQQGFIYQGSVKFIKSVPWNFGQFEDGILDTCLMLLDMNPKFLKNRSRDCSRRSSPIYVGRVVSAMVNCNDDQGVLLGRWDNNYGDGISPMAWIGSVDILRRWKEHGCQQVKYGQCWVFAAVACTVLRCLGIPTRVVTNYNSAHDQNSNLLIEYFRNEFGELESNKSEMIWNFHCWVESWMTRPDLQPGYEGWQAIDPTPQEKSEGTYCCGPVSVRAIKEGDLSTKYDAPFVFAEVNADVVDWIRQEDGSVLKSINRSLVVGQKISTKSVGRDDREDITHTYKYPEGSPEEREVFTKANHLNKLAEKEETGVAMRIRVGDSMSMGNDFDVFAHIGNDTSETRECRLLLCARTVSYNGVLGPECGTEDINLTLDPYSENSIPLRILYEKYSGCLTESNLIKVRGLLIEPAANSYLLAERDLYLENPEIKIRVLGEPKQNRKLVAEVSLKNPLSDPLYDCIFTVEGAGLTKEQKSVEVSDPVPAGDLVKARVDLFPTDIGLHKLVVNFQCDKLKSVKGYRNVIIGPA

[10] = Intrinsic clearance in human liver microsomes at 1 uM; assay type: ADME, Microsome; conditions: read-out: CLH
[11] = Apparent permeability from apical to basolateral side of wild type MDCK cells; assay type: ADME, cell-based, Canis lupus familiaris; conditions: dog
[12] = Kinetic solubility of the compound in phosphate buffered saline at pH 7.4; assay type: physicochemical; conditions: read-out: Kinetic_solubility
[13] = Intrinsic clearance in mouse liver microsomes at 1 uM; assay type: ADME, Microsome; conditions: read-out: CLH
[14] = Efflux ratio of permeability in wild type MDCK cells; assay type: ADME, cell-based, Canis lupus familiaris; conditions: dog

half-life at 1 µM [1] | Stability [2] | IC50 [3] | IC50 [4] | IC50 [5] | IC50 [6] | half-life at 1 µM [7] | IC50 [8] | IC50 [9] | microsomal CLint at 1 µM [10] | Papp A→B [11] | solubility kinetic [12] | microsomal CLint at 1 µM [13] | efflux ratio [14] | SMILES
4 h | Stable | 280 nM | > 80000 nM | 3600 nM | 910 nM | > 6 h | 8900 nM |  |  |  |  |  |  | C=CC(=O)NC1CCN(S(=O)(=O)c2ccc(NC(=O)OCc3ccccc3)cc2)CC1
> 6 h |  |  |  | 6400 nM | 1200 nM | > 6 h | 34000 nM | 55 nM |  |  |  |  |  | C=CC(=O)NC1CCN(S(=O)(=O)c2ccc(C(=O)NCCc3ccc(OC)cc3)cc2)CC1
> 6 h |  | 180 nM |  |  |  | > 6 h |  |  | 595 µL/min/mg | 8.3 ×10⁻⁶ cm/s | < 10 µg/mL | 99 µL/min/mg | 44 | C=CC(=O)NC1CCN(S(=O)(=O)c2ccc(C(=O)NCCc3ccccc3)cc2)CC1
